# Reference: ChEMBL document CHEMBL4418270, “Novel Pyrimidine- And Triazine-Hepcidine Antagonists” (2012)
# Biological target: T1, Hepcidin (Homo sapiens) (UniProt P81172)
# T1 sequence (whole entry): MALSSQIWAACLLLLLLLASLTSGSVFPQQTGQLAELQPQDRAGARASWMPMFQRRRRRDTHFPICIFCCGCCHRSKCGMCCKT
# Assay: Inhibition of human hepcidin-stimulated recombinant C-terminal Halo-tagged human FPN internalization in MDCK cells at 10 uM incubated for 15 to 20 mins by Halo-tagged TMR based fluorescence assay relative to control
# Format: cell-based
row,Compound,inhibition [%]
1,Nc1nc(-c2ccccn2)nc(N)c1Cc1ccccc1F,< 50
2,Oc1cccc(/C=N/Nc2cc(N3CCOCC3)nc(N3CCOCC3)n2)c1,> 50
3,CN(c1ccccc1)c1nc(N2CCOCC2)nc(-n2ccnc2)n1,< 50
4,C/C(=N\Nc1cc(N2CCOCC2)nc(C)n1)c1ccc(F)cc1,< 50
5,c1ccc(N(c2ccccc2)c2nc(N3CCOCC3)nc(-n3ccnc3)n2)cc1,> 50
6,COc1cnc(-c2ccccn2)nc1NC(C)C,> 50
7,Cc1ccc2cc(Nc3nc(N4CCOCC4)nc(N4CCOCC4)n3)ccc2n1,< 50
8,Cc1nc(N/N=C/c2ccc(O)cc2O)cc(N2CCOCC2)n1,> 50
9,Cc1nc(-c2ccccn2)nc(NCCNc2cc(C(F)(F)F)ccn2)c1Cl,< 50
10,COc1ccc(O)c(/C=N/Nc2nc(N3CCOCC3)nc(N3CCOCC3)n2)c1,> 50
11,Cc1nc(-c2ccccn2)nc(NCCNc2ccc(C(F)(F)F)cn2)c1Cl,< 50
12,Oc1ccccc1/C=N/Nc1cc(N2CCOCC2)nc(N2CCOCC2)n1,> 50
